According to ChEMBL document CHEMBL1255208, “A class of novel conjugates of substituted purine and Gly-AA-OBzl: synthesis and evaluation of orally analgesic activity” (2010):
Where a SMILES comes first, the peptide text is derived from it. The star is where a group is joined. OBn = c1ccc(CO*)cc1

Legend:
Format in all cases: functional
[1] = tested on: Mus musculus; test: Analgesic activity in mouse assessed as pain threshold variation at 25 umol/kg, po after 60 mins (RVb = -6.5 +/- 1.79 %)
[2] = tested on: Mus musculus; test: Analgesic activity in mouse assessed as pain threshold variation at 25 umol/kg, po after 180 mins (RVb = -5.10 %)
[3] = tested on: Mus musculus; test: Analgesic activity in mouse assessed as pain threshold variation at 25 umol/kg, po after 120 mins (RVb = 0.69 +/- 1.98 %)
[4] = tested on: Mus musculus; test: Analgesic activity in mouse assessed as pain threshold variation at 25 umol/kg, po after 90 mins (RVb = 0.2 +/- 3.75 %)
[5] = tested on: Mus musculus; test: Analgesic activity in mouse assessed as pain threshold variation at 25 umol/kg, po after 150 mins (RVb = 3.98 +/- 4.03 %)
[6] = tested on: Mus musculus; test: Analgesic activity in mouse assessed as pain threshold variation at 25 umol/kg, po after 30 mins (RVb = -1 +/- 2.8 %)
[7] = tested on: Mus musculus; test: Analgesic activity in mouse assessed as pain threshold variation at 30 umol/kg, po after 150 mins (RVb = 0.16 +/- 0.13 %)
[8] = tested on: Mus musculus; test: Analgesic activity in mouse assessed as pain threshold variation at 30 umol/kg, po after 90 mins (RVb = 0.17 +/- 0.14 %)
[9] = tested on: Mus musculus; test: Analgesic activity in mouse assessed as pain threshold variation at 30 umol/kg, po after 60 mins (RVb = 0.15 +/- 0.16 %)
[10] = tested on: Mus musculus; test: Analgesic activity in mouse assessed as pain threshold variation at 30 umol/kg, po after 30 mins (RVb = 0.13 +/- 0.14 %)
[11] = tested on: Mus musculus; test: Analgesic activity in mouse assessed as pain threshold variation at 30 umol/kg, po after 180 mins (RVb = 0.15 +/- 0.12 %)
[12] = tested on: Mus musculus; test: Analgesic activity in mouse assessed as pain threshold variation at 30 umol/kg, po after 120 mins (RVb = 0.18 +/- 0.15 %)

Structure (SMILES)	Activity [1] [%]	Activity [2] [%]	Activity [3] [%]	Activity [4] [%]	Activity [5] [%]	Activity [6] [%]	Activity [7] [%]	Activity [8] [%]	Activity [9] [%]	Activity [10] [%]	Activity [11] [%]	Activity [12] [%]
O=C(CN(c1nc(Cl)nc2c1ncn2C1CCCCO1)C1CC1)N[C@@H](Cc1c[nH]c2ccccc12)C(=O)OCc1ccccc1 (some centres undefined)	51.9	5.15	22.58	38.93	11.45	43.53	–	–	–	–	–	–
O=C(CN(c1nc(Cl)nc2c1ncn2C1CCCCO1)C1CC1)N[C@@H](CO)C(=O)OCc1ccccc1 (some centres undefined)	46.71	12.85	29.2	32.17	18.32	27.77	–	–	–	–	–	–
CC(C)(C)OC(=O)NCCCC[C@H](NC(=O)CN(c1nc(Cl)nc2c1ncn2C1CCCCO1)C1CC1)C(=O)OCc1ccccc1 (some centres undefined)	32.66	10.06	28.39	32.85	17.2	18.33	–	–	–	–	–	–
Clc1nc(Cl)c2nc[nH]c2n1	–	–	–	–	–	–	8.77	14.02	21.62	12.22	7.99	12.97
CSCC[C@H](NC(=O)CN(c1nc(Cl)nc2c1ncn2C1CCCCO1)C1CC1)C(=O)OCc1ccccc1 (some centres undefined)	40.97	12.89	28.66	42.7	17.47	30.04	–	–	–	–	–	–
O=C(CN(c1nc(Cl)nc2c1ncn2C1CCCCO1)C1CC1)N[C@@H](CC(=O)OCc1ccccc1)C(=O)OCc1ccccc1 (some centres undefined)	38.15	0.03	7.82	25.07	0.06	31.81	–	–	–	–	–	–
CC[C@H](C)[C@H](NC(=O)CN(c1nc(Cl)nc2c1ncn2C1CCCCO1)C1CC1)C(=O)OCc1ccccc1 (some centres undefined)	27.35	9.15	20.42	22.57	16.43	25.56	–	–	–	–	–	–
O=C(CN(c1nc(Cl)nc2c1ncn2C1CCCCO1)C1CC1)N[C@@H](Cc1cnc[nH]1)C(=O)OCc1ccccc1 (some centres undefined)	36.43	4.38	10.16	14.45	5.31	24.98	–	–	–	–	–	–
C[C@@H](O)[C@H](NC(=O)CN(c1nc(Cl)nc2c1ncn2C1CCCCO1)C1CC1)C(=O)OCc1ccccc1 (some centres undefined)	28.36	2.34	10.91	23.38	6.53	23.61	–	–	–	–	–	–
NC(=O)C[C@H](NC(=O)CN(c1nc(Cl)nc2c1ncn2C1CCCCO1)C1CC1)C(=O)OCc1ccccc1 (some centres undefined)	30.54	15.45	29.15	34.95	21.71	34.53	–	–	–	–	–	–
CC(C)C[C@H](NC(=O)CN(c1nc(Cl)nc2c1ncn2C1CCCCO1)C1CC1)C(=O)OCc1ccccc1 (some centres undefined)	34.19	0.04	12.79	28.22	6.47	26.2	–	–	–	–	–	–
O=C(O)CN(c1nc(Cl)nc2c1ncn2C1CCCCO1)C1CC1 (centres undefined)	15.24	3.41	7.68	8.22	3.12	5.21	–	–	–	–	–	–
NCC(=O)O [GLYCINE]	–	–	–	–	–	–	11.54	11.31	11.21	10.13	10.96	12.03
O=C(CN(c1nc(Cl)nc2c1ncn2C1CCCCO1)C1CC1)N[C@@H](Cc1ccccc1)C(=O)OCc1ccccc1 (some centres undefined)	45.54	1.79	26.29	37.73	3.49	39.2	–	–	–	–	–	–
Clc1nc(NC2CC2)c2ncn(C3CCCCO3)c2n1 (centres undefined)	20.63	5.92	12.64	11.93	5.72	10.27	10.78	16.96	25.61	15.2	9.95	15.66
CCOC(=O)CN(c1nc(Cl)nc2c1ncn2C1CCCCO1)C1CC1 (centres undefined)	22.64	5.33	14.91	13.04	11.85	9.92	–	–	–	–	–	–
O=C(CN(c1nc(Cl)nc2c1ncn2C1CCCCO1)C1CC1)N[C@@H](Cc1ccc(O)cc1)C(=O)OCc1ccccc1 (some centres undefined)	35.82	12.02	17.44	36.45	8.71	20.53	–	–	–	–	–	–
NC(=O)CC[C@H](NC(=O)CN(c1nc(Cl)nc2c1ncn2C1CCCCO1)C1CC1)C(=O)OCc1ccccc1 (some centres undefined)	39.4	7.71	22.34	37.82	10.72	46.96	–	–	–	–	–	–
Clc1nc(Cl)c2ncn(C3CCCCO3)c2n1 (centres undefined)	–	–	–	–	–	–	9.89	15.01	23.99	14.3	8.03	14.13
C[C@H](NC(=O)CN)C(=O)OCc1ccccc1 (H-Gly-Ala-OBn)	–	–	–	–	–	–	13	13.45	13.32	12.25	12.99	13.57
O=C(CN(c1nc(Cl)nc2c1ncn2C1CCCCO1)C1CC1)N[C@@H](CCC(=O)OCc1ccccc1)C(=O)OCc1ccccc1 (some centres undefined)	34.74	10.93	20.71	25.2	14.14	32.61	–	–	–	–	–	–
CC(C)[C@H](NC(=O)CN(c1nc(Cl)nc2c1ncn2C1CCCCO1)C1CC1)C(=O)OCc1ccccc1 (some centres undefined)	34.85	5.65	25.79	30.14	21.08	21.83	–	–	–	–	–	–
O=C(OCc1ccccc1)[C@@H]1CCCN1C(=O)CN(c1nc(Cl)nc2c1ncn2C1CCCCO1)C1CC1 (some centres undefined)	36.73	6.63	17.49	23.31	7.85	32.25	–	–	–	–	–	–
